Experimental data published in PMC5859250, “Contribution of transformation products towards the total herbicide toxicity to tropical marine organisms” (Scientific Reports, 2018).
Values after ≈ are worked out from the molar mass of the structure shown. “Also recorded” adds a separate entry of the source.

Key:
[1] = test system: Symbiodinium sp.; test: Microalgal PAM fluorometry assay, inhibition of ∆F/Fm′ (24 h, 96-well plate); format: cell-based; conditions: for LOEC, effect on ∆F/Fm′ / NOEC, effect on ∆F/Fm′: pure transformation product, ANOVA p < 0.05
Source text: (§1) Microalgae play a critical role in the marine food web and have been used in a number of sensitive assays for the assessment of toxicity of both herbicides and their transformation products[13],[16],[60]. High throughput 96 well plate designs allow for increased replication and a wide range of concentrations especially when paired with pulse amplitude modulation (PAM) fluorometry[50],[61]. PAM fluorometry measures chlorophyll fluorescence and can be used to calculate inhibitions of effective quantum yield ∆F/Fm′, which is proportional to reduced photosynthetic efficiency[62] and growth in microalgae[63] and can be plotted against toxicant concentrations to derive concentrations that inhibit ∆F/Fm′ by 10, 20 and 50% (IC10, IC20 and IC50). In the present study the green algae (Dunaliella sp.) and coral symbiont (Symbiodinium sp.) were exposed to herbicides and aged herbicide solutions for 24 h in a 96-well plate format. A Maxi-Imaging-PAM (I-PAM) (Walz, GmbH Germany) was used to measure inhibition of ∆F/Fm′ using settings provided previously[36] and below.
(§2) Symbiodinium cells were isolated from coral by air blasting branches of Acropora tenuis colonies collected (collected under the permit G10-33440.1) at 2–5 m depth in Nelly Bay, Magnetic Island, GBR[36]. Symbiodinium cells were inoculated into sterile IMK growing media, the culture purified, DNA extracted, and Clade C1 identified as published previously[64],[65]. Cultures were maintained at 26 °C, 60 µE PAR, 14:10 light:dark photoperiod inside environmental chambers (Steridium e500). The Dunaliella sp. (CS-353) (Chlorophyceae) was obtained from the CSIRO Collection of Living Microalgae (CCLM). The algae was subcultured and grown in F2 media. For the toxicology assays, an exponentially growing culture was employed[63] and density adjusted by hemocytometry under 10× magnification. Day 7 sub-cultures were used throughout the experiment.
(§3) Herbicide solutions were delivered into each treatment plate using a Perkin Elmer Janus liquid handling system. Each well of the black 96-well plates (Perkin Elmer) received 100 µl herbicide solution as well as 100 µl of algal suspension (added via multi-channel pipette) and the solution was gently mixed. […] Each plate included a 3 µg l^−1 positive diuron control (n = 4) to confirm consistent sensitivities among the replicate algal subcultures. Treatments positions were randomised across the plates in duplicate[50],[61],[66]. Symbiodinium culture plates were incubated over a 12:12 h light:dark cycle at 26 °C and 60–70 µmol photons m^−2 s^−1 and Dunaliella sp. Plates incubated at: 26 °C and 130 µmol photons m^−2 s^−1. Microalgae were exposed for 24 h prior to PAM measurements. Samples were subjected to the 50 µmol photons m^−2 s^−1 actinic light for 1 min prior to measurement in the Maxi-IPAM (Actinic light = 1, ML = 10, ML frequency = 8, gain = 2 and damping = 1).
(§4) The model was constrained by applying a lower limit of 0% inhibition and all curves were tested for normality of the residuals and a replicate test was applied to assess the goodness of fit[36]. The probability that ICX values generated by the logistic curves were statistically different between parent and aged herbicide solutions was tested by applying the F test in Graph Pad Prism v6. ICXs were considered different when p < 0.05. Where inhibition data could not be fitted to logistic curves, one-way analysis of variance (ANOVA) was performed to identify treatments which caused significant (p < 0.05) inhibition comparison with control treatments (NCSS v9, Utah, USA). The larval prawn experimental data was arcsine square root transformed prior to statistical analysis.

[2] = test system: Dunaliella sp.; test: as above; format: cell-based; conditions: for LOEC, effect on ∆F/Fm′ / NOEC, effect on ∆F/Fm′: pure transformation product, ANOVA p < 0.05
Source text: as §1, §2, §3, §4

[3] = 24 h, read-out: IC20 parent (inhibition of ∆F/Fm′ by 20%)

Compound | Inhibition of ∆F/Fm′ (in words) ([1]; Symbiodinium sp., concentrations up to 273 µg l^−1) | LOEC, effect on ∆F/Fm′ ([1]; Symbiodinium sp.) [µg/L] | NOEC, effect on ∆F/Fm′ ([1]; Symbiodinium sp.) [µg/L] | Inhibition of ∆F/Fm′ (in words) ([2]; Dunaliella sp., concentrations up to 273 µg l^−1) | LOEC, effect on ∆F/Fm′ ([2]; Dunaliella sp.) [µg/L] | NOEC, effect on ∆F/Fm′ ([2]; Dunaliella sp.) [µg/L] | IC20 [1, 3] [µg/mL] | IC10 parent (inhibition of ∆F/Fm′ by 10%) ([1]; Symbiodinium sp., 24 h, pure compound) | Inhibition of ∆F/Fm′ ([1]; Symbiodinium sp., evident at 84 µg l^−1) | IC20 [2, 3] [µg/mL] | IC10 parent (inhibition of ∆F/Fm′ by 10%) ([2]; Dunaliella sp., 24 h, pure compound) | Inhibition of ∆F/Fm′ ([2]; Dunaliella sp., evident at 56 µg l^−1) | Inhibition of ∆F/Fm′ ([1]; Symbiodinium sp., 458 µg l^−1) [%] | Inhibition of ∆F/Fm′ ([2]; Dunaliella sp., 458 µg l^−1, significant (ANOVA, p < 0.05)) [%]
Nc1ccc(Cl)c(Cl)c1 [3,4-DCA, 3,4-dichloroaniline] | no significant inhibition; also recorded: did not inhibit ∆F/Fm′ | >273.41 | 273.41 | no significant inhibition; also recorded: did not inhibit ∆F/Fm′ | >273.41 | 273.41 | – | – | – | – | – | – | – | –
CC(C)Nc1nc(N)nc(Cl)n1 [DEA, desethylatrazine] | – | 83.68 | 55.63 | – | 55.63 | 33.30 | 0.218 (≈ 1.16 µM) | 103 (93–115) µg l^−1 | 9–35% | 0.31 (≈ 1.65 µM) | 157 (142–173) µg l^−1 | 9–35% | – | –
CCNc1nc(N)nc(Cl)n1 [DIA, desisopropylatrazine] | – | >458.31 | 458.31 | – | 458.31 | 148.97 | – | – | – | – | – | – | < 8 | < 8
